How the values were obtained:
[1] = test system: hippocampal neurons; assay: whole cell patch-clamp recording of EGABA with imposed Cl− load in hippocampal neurons; assay type: cell-based, Sprague Dawley; conditions: incubated 1 h, 32 mM Cl− load, 5 min after break-in, controls −47.4±2.3
Protocol: Neuronal Cultures. Hippocampal neurons were prepared from Sprague Dawley E18 embryos and plated at 450,000 per dish and maintained at 37° C. in a humidified 5% CO2 incubator for 10-25 days before experimentation (Lee et al., Nat. Neurosci. 14, 736-743 (2011)).
Neuronal Patch clamp assays. Neuronal cell culture recordings were performed in bath saline at 34° C. For gramicidin perforated-patch experiments, pipettes contained (in mM): 140 KCl and 10 HEPES, pH 7.4 KOH. For whole-cell experiments, pipettes contained (in mM): 115 K-meth-SO4, 30 KCl, 2 Mg-ATP, 4 Na-ATP, 0.4 Na-GTP, and 10 HEPES, pH 7.4 KOH. Bath saline contained the following (in mM): 140 NaCl, 2.5 KCl, 2.5 CaCl2, 2.5 MgCl2, 10 HEPES, and 11 glucose, pH 7.4 NaOH (Kontou et al., 2021, supra). All compound solutions were applied to cells using a three-barreled 700 μm pipe positioned just above the cell (Warner Instruments). […] All voltages from whole-cell experiments were corrected offline using a calculated liquid junction potential value (13.6 mV) in Clampex (Molecular Devices). For gramicidin perforated-patch experiments, intracellular Cl^− values were back-calculated using measured EGABA values and the Nernst equation: […]
5 min after break-in, an initial EGABA value was determined and the effects of a subsequent 5 min incubation with VU0463271 was assessed.

[2] = PK studies, brain and plasma levels by LC-MS/MS; assay type: in vivo; conditions: mice
Protocol: PK studies. […] Plasma and brain samples were rapidly frozen on dry ice.
Drug accumulation in the brain was examined following SC injection (FIG. 4C; 50 mg/kg).

[3] = target: T1, KCC3 (Homo sapiens, UniProt Q9UHW9); assay: TI+ flux assay, HEK-293 cells expressing KCC3; assay type: cell-based; conditions: read-out: concentration at which effects on KCC3 were seen (EC50 chart FIG. 1G)
T1 construct: expressed in transfected cells; host or cells: HEK-293
T1 sequence (Q9UHW9 1-1150): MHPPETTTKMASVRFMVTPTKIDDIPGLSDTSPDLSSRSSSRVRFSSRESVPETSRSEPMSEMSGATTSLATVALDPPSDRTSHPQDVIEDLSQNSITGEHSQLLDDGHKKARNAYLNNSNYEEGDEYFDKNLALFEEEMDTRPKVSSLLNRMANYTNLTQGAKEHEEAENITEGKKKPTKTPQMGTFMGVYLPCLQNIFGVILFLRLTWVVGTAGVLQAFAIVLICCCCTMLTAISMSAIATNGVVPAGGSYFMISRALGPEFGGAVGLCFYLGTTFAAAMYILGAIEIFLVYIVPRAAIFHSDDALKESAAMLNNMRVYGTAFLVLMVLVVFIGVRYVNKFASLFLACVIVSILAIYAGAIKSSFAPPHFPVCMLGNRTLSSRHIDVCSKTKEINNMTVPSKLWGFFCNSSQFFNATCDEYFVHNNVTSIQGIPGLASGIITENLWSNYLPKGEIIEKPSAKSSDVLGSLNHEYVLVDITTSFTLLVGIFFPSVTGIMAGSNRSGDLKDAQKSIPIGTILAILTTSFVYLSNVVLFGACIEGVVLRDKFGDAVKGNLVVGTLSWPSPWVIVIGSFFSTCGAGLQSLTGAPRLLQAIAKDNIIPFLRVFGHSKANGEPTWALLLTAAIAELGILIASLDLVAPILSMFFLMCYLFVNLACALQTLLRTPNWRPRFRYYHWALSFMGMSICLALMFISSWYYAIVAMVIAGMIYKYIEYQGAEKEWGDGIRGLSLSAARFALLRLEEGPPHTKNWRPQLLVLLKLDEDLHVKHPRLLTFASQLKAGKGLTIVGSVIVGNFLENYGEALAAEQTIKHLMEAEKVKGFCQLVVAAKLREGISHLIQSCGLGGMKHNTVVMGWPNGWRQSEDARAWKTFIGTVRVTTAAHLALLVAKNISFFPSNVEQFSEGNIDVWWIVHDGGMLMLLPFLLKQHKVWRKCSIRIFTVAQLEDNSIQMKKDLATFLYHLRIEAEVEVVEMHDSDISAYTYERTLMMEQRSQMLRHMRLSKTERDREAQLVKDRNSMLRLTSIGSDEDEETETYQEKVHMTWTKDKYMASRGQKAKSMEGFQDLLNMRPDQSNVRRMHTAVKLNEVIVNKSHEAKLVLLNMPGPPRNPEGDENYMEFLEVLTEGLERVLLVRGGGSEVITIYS
Protocol: FLIPR TI Flux assay. HEK-293 cells were washed with HBSS, and then incubated with loading buffer containing TI sensitive fluorescent dye (https://www.moleculardevices.com), 20 μM bumetanide 20 μM ouabain and 2.5 mM probenecid for 1 h at room temperature (RT) under control conditions or with drugs in the dark using a FlexStation 3 microplate reader (Molecular Devices) and imaged […] for 30 min. Stimulus buffer was added containing 5 mM K^+/0.5 mM Tl^+ and cells were imaged every 1.5 over a 190 second time course The initial rate Tl^+ uptake (Relative Fluorescence Units (RFU) per second) was determined following addition of the stimulus buffer as outlined previously (Conway et al., 2017, supra) (Lee et al., 2022, supra).
Several studies have shown that the activity and plasma membrane accumulation of KCC2 is potentiated via phosphorylation of S940, a process mediated by the activity of protein kinase C and protein phosphatase 1 (Lee et al., 2011, supra; Lee et al., J Biol Chem 282, 29777-29784 (2007); Moore et al., Proc. Natl. Acad. Sci. U.S.A. 115, 10166-10171 (2018); Moore et al., Trends Neurosci. 40, 555-571 (2017); Silayeva et al., Proc. Natl. Acad. Sci. U.S.A. 112, 3523-3528 (2015)). […] Compared to KCC2, effects on KCC3, KCC4, and NKCC1 were only seen at concentrations more than 35-fold that of KCC2 (>100 μM) (FIG. 1G).

For `C[C@@H]1CN(c2nc3c(c(Nc4ccc(C5CCCCC5)cc4)n2)COC3)CCO1` [Compound A, (R)—N-(4-cyclohexylphenyl)-2-(2-methylmorpholino)-5,7-dihydrofuro[3,4-d]pyrimidin-4-amine], the basal EGABA [1] was -59.3 ± 2.1 mV, the “time at which accumulation in the brain was evident” value ([2]; 25 mg/kg IV bolus) was at most 30 min and the “brain level 8 h later” value ([2]; SC 50 mg/kg) was “maintained”. For the same compound, the “time at which accumulation in the brain was detected” value ([2]; SC 50 mg/kg) was 30 min, the “time of maximal concentration in the brain” value ([2]; SC 50 mg/kg) was 4 h and the EC50 [3] was over 100 µM.

Reference: patent US20250281498A1, “FUSED AMINO PYRIMIDINE COMPOUNDS FOR TREATMENT OF SYNUCLEINOPATHIES AND TDP-43 PROTEINOPATHIES” (Ovid Therapeutics Inc., priority 2024, published 2025)
